Test results: patent US6737383B1, “Herbicidal oxadiazolidines” (priority 1999, dated 2004)

Legend:
smallflower flatsedge = assay: Test B flood test smallflower flatsedge; type: in vivo, Cyperus difformis
In short: (§1)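 Each value is a visual injury score relative to controls, with 10 meaning complete control and 0 no effect. Evaluation took place twelve to sixteen days after the 2-leaf-stage plants were treated and kept in the greenhouse.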

cocklebur = assay: Test B pre/postemergence cocklebur; type: in vivo, Xanthium strumarium
In short: (§2)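 Herbicidal effect was estimated by eye on a ten-point control scale after plants spent twelve to sixteen days in a greenhouse following soil or foliar treatment. Foliar sprays targeted plants at one to four leaves; all doses were formulated in a non-phytotoxic solvent with surfactant.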

surinam grass = assay: Test B pre/postemergence surinam grass; type: in vivo, Brachiaria decumbens
In short: as §2

sugar beet = assay: Test B pre/postemergence sugar beet; type: in vivo, Beta vulgaris
In short: as §2

pigweed = assay: Test B pre/postemergence pigweed; type: in vivo, Amaranthus retroflexus
In short: as §2

bamyardgrass = assay: Test B flood test barnyardgrass; type: in vivo, Echinochloa crus-galli
In short: as §1

morningglory = assay: Test B pre/postemergence morningglory; type: in vivo, Ipomoea hederacea
In short: as §2

soybean = assay: Test B pre/postemergence soybean; type: in vivo, Glycine max
In short: as §2

giant foxtail = assay: Test B pre/postemergence giant foxtail; type: in vivo, Setaria faberii
In short: as §2

corn = assay: Test B pre/postemergence corn; type: in vivo, Zea mays
In short: as §2

crabgrass = assay: Test B pre/postemergence crabgrass; type: in vivo, Digitaria sanguinalis
In short: as §2

purple nutsedge = assay: Test B pre/postemergence purple nutsedge; type: in vivo, Cyperus rotundus
In short: as §2

velvetleaf = assay: Test B pre/postemergence velvetleaf; type: in vivo, Abutilon theophrasti
In short: as §2

rape = assay: Test B pre/postemergence rape; type: in vivo, Brassica napus
In short: as §2

blackgrass = assay: Test B pre/postemergence blackgrass; type: in vivo, Alopecurus myosuroides
In short: as §2

wild oat = assay: Test B pre/postemergence wild oat; type: in vivo, Avena fatua
In short: as §2

[1] = Postemergence, Rate 62 g/ha, scale 0 to 10, 0 is no effect, 10 is complete control
[2] = Rate 125 g/ha, Postemergence section (flood test species), scale 0 to 10, 0 no effect, 10 complete control
[3] = Rate 250 g/ha, headed Pre-emergence (flood test species), scale 0 to 10 (0 no effect, 10 complete control)
[4] = Rate 500 g/ha, headed Pre-emergence (flood test species), scale 0 to 10 (0 no effect, 10 complete control)
[5] = flood test, listed under Postemergence, Rate 250 g/ha, scale 0 to 10, 0 no effect, 10 complete control
[6] = Postemergence, Rate 250 g/ha, scale 0 to 10, 0 no effect, 10 complete control
[7] = Preemergence, Rate 31 g/ha, visual rating, scale 0 to 10 (0 no effect, 10 complete control)
[8] = Preemergence, Rate 62 g/ha, scale 0 to 10, 0 is no effect, 10 is complete control
[9] = Preemergence, Rate 125 g/ha, scale 0 to 10 (0 no effect, 10 complete control)
[10] = Rate 31 g/ha, Postemergence, scale 0 to 10
[11] = Rate 125 g/ha, Postemergence, scale 0 to 10, 0 no effect, 10 complete control
[12] = Preemergence, Rate 250 g/ha, scale of 0 to 10 where 0 is no effect and 10 is complete control

## COc1ccccc1-n1c(=O)on(C(=O)N(c2ccc(F)cc2)C(C)C)c1=O [Compound 30]
Smallflower flatsedge; [1]
  S. Flatsedge plant response rating: 0
Smallflower flatsedge; Pre-emergence, Rate 1000 g/ha, scale 0 to 10 (0 no effect, 10 complete control)
  S. Flatsedge plant response rating: 0
Smallflower flatsedge; [2]
  S. Flatsedge plant response rating: 0
Smallflower flatsedge; [3]
  S. Flatsedge plant response rating: 0
Smallflower flatsedge; [4]
  Plant response rating, S. Flatsedge: 0
Smallflower flatsedge; Rate 2000 g/ha, Pre-emergence (as headed), scale 0 to 10
  S. Flatsedge plant response rating: 0
Smallflower flatsedge; [5]
  S. Flatsedge plant response rating: 0
cocklebur; [1]
  Cocklebur plant response rating: 0
cocklebur; [6]
  Cocklebur plant response rating: 0
cocklebur; [7]
  Cocklebur plant response rating: 0
cocklebur; [8]
  Plant response rating, Cocklebur: 0
cocklebur; [9]
  Plant response rating, Cocklebur: 0
cocklebur; [10]
  Cocklebur plant response rating: 0
cocklebur; [11]
  Cocklebur plant response rating: 0
Surinam grass; [1]
  B. signalgrass plant response rating: 0
Surinam grass; [6]
  B. signalgrass plant response rating: 0
Surinam grass; [7]
  B. signalgrass plant response rating: 0
Surinam grass; [8]
  Plant response rating, B. signalgrass: 0
Surinam grass; [9]
  Plant response rating, B. signalgrass: 0
Surinam grass; [12]
  Plant response rating, B. signalgrass: 4
Surinam grass; [10]
  B. signalgrass plant response rating: 0
Surinam grass; [11]
  B. signalgrass plant response rating: 0
Sugar beet; [1]
  Sugarbeets plant response rating: 0
Sugar beet; [6]
  Sugarbeets plant response rating: 0
Sugar beet; [7]
  Sugarbeets plant response rating: 0
Sugar beet; [8]
  Plant response rating, Sugarbeets: 0
Sugar beet; [9]
  Plant response rating, Sugarbeets: 0
Sugar beet; [12]
  Plant response rating, Sugarbeets: 0
Sugar beet; [11]
  Sugarbeets plant response rating: 0
pigweed; [1]
  Redroot pigweed plant response rating: 0
pigweed; [6]
  Redroot pigweed plant response rating: 0
pigweed; [7]
  Redroot pigweed plant response rating: 0
pigweed; [8]
  Plant response rating, Redroot pigweed: 0
pigweed; [9]
  Plant response rating, Redroot pigweed: 0
pigweed; [12]
  Plant response rating, Redroot pigweed: 7
pigweed; [10]
  Redroot pigweed plant response rating: 0
pigweed; [11]
  Redroot pigweed plant response rating: 0
bamyardgrass; [1]
  Barnyardgrass plant response rating: 0
bamyardgrass; [2]
  Barnyardgrass plant response rating: 0
bamyardgrass; [3]
  Barnyardgrass plant response rating: 0
bamyardgrass; Rate 500 g/ha, Postemergence section of Table B, 0 to 10 scale (0 no effect, 10 complete control)
  Barnyardgrass plant response rating: 0
bamyardgrass; [4]
  Plant response rating, Barnyardgrass: 0
bamyardgrass; Rate 1000 g/ha, Pre-emergence (as headed), scale 0 to 10
  Barnyardgrass plant response rating: 0
bamyardgrass; Rate 2000 g/ha, Pre-emergence (as headed), scale 0 to 10, 0 no effect, 10 complete control
  Barnyardgrass plant response rating: 0
bamyardgrass; [5]
  Barnyardgrass plant response rating: 0
morningglory; [1]
  Morningglory plant response rating: 1
morningglory; [6]
  Morningglory plant response rating: 6
morningglory; [7]
  Morningglory plant response rating: 0
morningglory; [8]
  Plant response rating, Morningglory: 0
morningglory; [9]
  Plant response rating, Morningglory: 0
morningglory; [12]
  Plant response rating, Morningglory: 0
morningglory; [10]
  Morningglory plant response rating: 1
morningglory; [11]
  Morningglory plant response rating: 1
soybean; [1]
  Soybean plant response rating: 1
soybean; [6]
  Soybean plant response rating: 2
soybean; [7]
  Soybean plant response rating: 0
soybean; [8]
  Plant response rating, Soybean: 0
soybean; [9]
  Plant response rating, Soybean: 0
soybean; [12]
  Plant response rating, Soybean: 0
soybean; [11]
  Soybean plant response rating: 1
Giant foxtail; [1]
  Giant foxtail plant response rating: 0
Giant foxtail; [6]
  Giant foxtail plant response rating: 3
Giant foxtail; [7]
  Giant foxtail plant response rating: 2
Giant foxtail; [8]
  Plant response rating, Giant foxtail: 2
Giant foxtail; [9]
  Plant response rating, Giant foxtail: 3
Giant foxtail; [12]
  Plant response rating, Giant foxtail: 10
Giant foxtail; [10]
  Giant foxtail plant response rating: 0
Giant foxtail; [11]
  Giant foxtail plant response rating: 2
corn; [1]
  Corn plant response rating: 0
corn; [6]
  Corn plant response rating: 0
corn; [7]
  Corn plant response rating: 0
corn; [8]
  Plant response rating, Corn: 0
corn; [9]
  Plant response rating, Corn: 0
corn; [12]
  Plant response rating, Corn: 0
corn; [10]
  Corn plant response rating: 0
corn; [11]
  Corn plant response rating: 0
crabgrass; [1]
  Crabgrass plant response rating: 1
crabgrass; [6]
  Crabgrass plant response rating: 9
crabgrass; [7]
  Crabgrass plant response rating: 2
crabgrass; [8]
  Plant response rating, Crabgrass: 3
crabgrass; [9]
  Plant response rating, Crabgrass: 9
crabgrass; [12]
  Plant response rating, Crabgrass: 10
crabgrass; [10]
  Crabgrass plant response rating: 0
crabgrass; [11]
  Crabgrass plant response rating: 8
Purple nutsedge; [1]
  Nutsedge plant response rating: 0
Purple nutsedge; [6]
  Nutsedge plant response rating: 0
Purple nutsedge; [7]
  Nutsedge plant response rating: 0
Purple nutsedge; [8]
  Plant response rating, Nutsedge: 0
Purple nutsedge; [9]
  Plant response rating, Nutsedge: 0
Purple nutsedge; [12]
  Plant response rating, Nutsedge: 0
Purple nutsedge; [10]
  Nutsedge plant response rating: 0
Purple nutsedge; [11]
  Nutsedge plant response rating: 0
velvetleaf; [1]
  Velvetleaf plant response rating: 0
velvetleaf; [6]
  Velvetleaf plant response rating: 0
velvetleaf; [7]
  Velvetleaf plant response rating: 0
velvetleaf; [8]
  Plant response rating, Velvetleaf: 0
velvetleaf; [9]
  Plant response rating, Velvetleaf: 0
velvetleaf; [12]
  Plant response rating, Velvetleaf: 3
velvetleaf; [11]
  Velvetleaf plant response rating: 0
rape; [1]
  Rape plant response rating: 0
rape; [6]
  Rape plant response rating: 0
rape; [7]
  Rape plant response rating: 0
rape; [8]
  Plant response rating, Rape: 0
rape; [9]
  Plant response rating, Rape: 0
rape; [12]
  Plant response rating, Rape: 0
rape; [10]
  Rape plant response rating: 0
rape; [11]
  Rape plant response rating: 0
blackgrass; [1]
  Blackgrass plant response rating: 0
blackgrass; [6]
  Blackgrass plant response rating: 2
blackgrass; [7]
  Blackgrass plant response rating: 0
blackgrass; [8]
  Plant response rating, Blackgrass: 3
blackgrass; [9]
  Plant response rating, Blackgrass: 3
blackgrass; [12]
  Plant response rating, Blackgrass: 7
blackgrass; [10]
  Blackgrass plant response rating: 0
blackgrass; [11]
  Blackgrass plant response rating: 0
Wild oat; [1]
  Wild oats plant response rating: 0
Wild oat; [6]
  Wild oats plant response rating: 0
Wild oat; [7]
  Wild oats plant response rating: 0
Wild oat; [9]
  Plant response rating, Wild oats: 2
Wild oat; [12]
  Plant response rating, Wild oats: 8
Wild oat; [11]
  Wild oats plant response rating: 0
